Test results reported in article PMC11235165, “Delocalized quinolinium-macrocyclic peptides, an atypical chemotype for CNS penetration” (Science Advances, 2024).
Like-named read-outs stand apart in the source and are kept apart here.

What was measured:
[1] = system: mitochondrial permeability transition pore (mPTP); assay: Calcium retention capacity (CRC) assay in isolated liver mitochondria; type: biochemical, rat; settings: Table S4 / Fig. S2; rat liver mitochondria; 500 nM; (Treated-NonTreated)/NonTreated)*100
Cyclophilin A (CypA) = Cyclophilin A (CypA) (Homo sapiens, UniProt P62937); assay: Fluorescence polarization cyclophilin A binding assay
Chain of Cyclophilin A (CypA) (P62937 whole entry): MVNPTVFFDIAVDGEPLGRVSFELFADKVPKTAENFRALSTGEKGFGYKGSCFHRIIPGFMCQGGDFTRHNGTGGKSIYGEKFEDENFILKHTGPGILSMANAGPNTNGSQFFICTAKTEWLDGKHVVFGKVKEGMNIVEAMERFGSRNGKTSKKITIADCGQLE
Protocol: (§1) This was determined using a fluorescence polarization assay ([12]).
Fluorescence Polarization assay.
(§2) Briefly, titration of a single probe concentration
measure binding affinities.
FP -probe. Enzyme, inhibitor and
(ph7.4)) supplemented with 1 mM PMSF.

CypD = CypD (Homo sapiens, UniProt P30405); assay: Fluorescence polarization cyclophilin D binding assay
Chain of CypD (P30405 30-207): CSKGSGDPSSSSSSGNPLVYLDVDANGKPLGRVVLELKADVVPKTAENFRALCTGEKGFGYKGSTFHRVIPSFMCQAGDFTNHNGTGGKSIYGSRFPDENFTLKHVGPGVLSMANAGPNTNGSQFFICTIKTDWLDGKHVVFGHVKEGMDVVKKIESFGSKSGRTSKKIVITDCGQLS
Protocol: as §1
Fluorescence Polarization assay.
as §2
measure binding affinities.

in vivo = settings: ABH, mouse, ip, 10 mg/kg; for level at 24 h: Brain concentrations at 24 hours
Protocol: (§3) The remaining five compounds were evaluated for plasma and brain levels in a pharmacokinetic experiment in mice.
Pharmacokinetic analysis.
(Cyprotex UK) using LCMSMS.

[2] = mouse, in vivo, 10 mg/kg; for Cl_obs: ip
Protocol: as §3
Pharmacokinetic analysis.
(Cyprotex UK) using LCMSMS.

[3] = Hepatocyte clearance (human); type: in vitro ADME; settings: human hepatocytes
[4] = Brain tissue binding (fraction unbound); type: in vitro ADME; settings: read-out: Brain tissue (fu)
From the text: Table 1. Key data for lead optimization. SD, standard deviation of the mean; SE, standard error of the mean; fu, fraction unbound; ND, not determined. | column: Brain tissue (fu)

[5] = mouse, in vivo, ip, 10 mg/kg
Protocol: as §3
Pharmacokinetic analysis.
(Cyprotex UK) using LCMSMS.

hERG = hERG (Homo sapiens, UniProt Q12809); assay: hERG inhibition; type: biochemical; settings: for inhibition at 25 µM: hERG (% inhibition at 25 μM)
Chain of hERG (Q12809 whole entry): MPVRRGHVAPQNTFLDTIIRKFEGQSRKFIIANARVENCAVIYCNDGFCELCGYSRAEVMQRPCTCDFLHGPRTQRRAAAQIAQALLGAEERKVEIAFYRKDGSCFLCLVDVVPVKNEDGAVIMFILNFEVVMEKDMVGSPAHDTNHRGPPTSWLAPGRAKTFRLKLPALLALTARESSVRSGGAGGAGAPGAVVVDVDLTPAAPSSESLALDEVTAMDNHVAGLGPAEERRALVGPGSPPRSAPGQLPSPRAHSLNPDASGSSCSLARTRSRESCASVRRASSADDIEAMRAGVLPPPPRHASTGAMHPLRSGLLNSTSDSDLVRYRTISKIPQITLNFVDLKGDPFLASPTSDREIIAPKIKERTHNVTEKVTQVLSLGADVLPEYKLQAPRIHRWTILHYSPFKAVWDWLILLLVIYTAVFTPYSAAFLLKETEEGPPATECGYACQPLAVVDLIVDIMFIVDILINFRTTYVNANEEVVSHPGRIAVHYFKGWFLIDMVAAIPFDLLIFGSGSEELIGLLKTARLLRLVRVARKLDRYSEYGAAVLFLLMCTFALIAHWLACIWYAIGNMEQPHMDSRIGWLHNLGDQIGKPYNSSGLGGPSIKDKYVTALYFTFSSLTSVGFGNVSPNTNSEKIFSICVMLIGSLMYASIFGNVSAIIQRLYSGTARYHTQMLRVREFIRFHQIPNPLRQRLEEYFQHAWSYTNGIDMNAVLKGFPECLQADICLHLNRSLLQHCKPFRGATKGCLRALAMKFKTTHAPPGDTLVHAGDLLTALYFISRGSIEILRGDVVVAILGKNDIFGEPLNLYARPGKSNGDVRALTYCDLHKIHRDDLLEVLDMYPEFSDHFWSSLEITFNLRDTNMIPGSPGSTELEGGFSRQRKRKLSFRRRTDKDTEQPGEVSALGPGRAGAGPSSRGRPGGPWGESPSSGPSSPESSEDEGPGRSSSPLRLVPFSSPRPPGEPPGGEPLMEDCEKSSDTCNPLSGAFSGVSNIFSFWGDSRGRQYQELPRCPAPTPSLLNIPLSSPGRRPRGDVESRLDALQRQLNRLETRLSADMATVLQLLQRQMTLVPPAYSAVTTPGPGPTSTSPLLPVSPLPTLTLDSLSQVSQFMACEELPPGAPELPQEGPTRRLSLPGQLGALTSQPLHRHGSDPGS

[6] = Hepatocyte clearance (mouse); type: in vitro ADME; settings: mouse hepatocytes
[7] = Pharmacokinetic study, plasma and brain levels by LC-MS/MS; settings: mice; for level at 1 h / level at 4 h: ABH, mouse, ip;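 on all read-outs here: ABH mice, four per group, dosed intraperitoneally, plasma and brain taken at set times after euthanasia, drug levels quantified by LC-MS/MS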
Protocol: as §3
Pharmacokinetic analysis.
(Cyprotex UK) using LCMSMS.

[8] = Plasma protein binding (fraction unbound); type: in vitro ADME; settings: read-out: Plasma protein (fu)
[9] = Table S2, 4-oxa substituted and O-linked quinolinium salts, fluorescence polarization, read-out: Ki (nM), Cyclophilin A binding affinity
[10] = Table S3, 4-aza substituted quinolinium salts, fluorescence polarization, read-out: Ki (nM) CypA
[11] = Table S7, focused SAR set, read-out: CypD Ki
[12] = Table S7, focused SAR set, read-out: CypA Ki

Compound: CC[C@@H]1NC(=O)[C@H]([C@H](O)[C@H](C)CC=CCCC[n+]2ccc(OCCc3ccccc3)c3ccccc32)N(C)C(=O)[C@H](C(C)C)N(C)C(=O)[C@H](CC(C)C)N(C)C(=O)[C@H](CC(C)C)N(C)C(=O)[C@@H](C)NC(=O)[C@H](C)NC(=O)[C@H](CC(C)C)N(C)C(=O)[C@H](C(C)C)NC(=O)[C@H](CC(C)C)N(C)C(=O)CN(C)C1=O [TWH30]
- CRC inhibition % [1]: 27.89%
- Ki (Cyclophilin A (CypA); [9]): 267 ± 16 nM

Compound: CC[C@@H]1NC(=O)[C@H]([C@H](O)[C@H](C)CC=CCCC[n+]2ccc(N(C)CCc3ccccc3)c3ccccc32)N(C)C(=O)[C@H](C(C)C)N(C)C(=O)[C@H](CC(C)C)N(C)C(=O)[C@H](CC(C)C)N(C)C(=O)[C@@H](C)NC(=O)[C@H](C)NC(=O)[C@H](CC(C)C)N(C)C(=O)[C@H](C(C)C)NC(=O)[C@H](CC(C)C)N(C)C(=O)CN(C)C1=O [JP1-037]
- CRC inhibition % [1]: 20.61%
- Ki (Cyclophilin A (CypA); [10]): 4.4 ± 2 nM

Compound: CC[C@@H]1NC(=O)[C@H]([C@H](O)[C@H](C)C/C=C/CCCOc2cc[n+](CCc3ccccc3)c3ccccc23)N(C)C(=O)[C@H](C(C)C)N(C)C(=O)[C@H](CC(C)C)N(C)C(=O)[C@H](CC(C)C)N(C)C(=O)[C@@H](C)NC(=O)[C@H](C)NC(=O)[C@H](CC(C)C)N(C)C(=O)[C@H](C(C)C)NC(=O)[C@H](CC(C)C)N(C)C(=O)CN(C)C1=O [TWH46]
- Ki (Cyclophilin A (CypA); [9]): 265 ± 111 nM

Compound: CC[C@@H]1NC(=O)[C@H]([C@H](O)[C@H](C)CC=CCCC[n+]2ccc(N(C)Cc3ccccc3)c3ccccc32)N(C)C(=O)[C@H](C(C)C)N(C)C(=O)[C@H](CC(C)C)N(C)C(=O)[C@H](CC(C)C)N(C)C(=O)[C@@H](C)NC(=O)[C@H](C)NC(=O)[C@H](CC(C)C)N(C)C(=O)[C@H](C(C)C)NC(=O)[C@H](CC(C)C)N(C)C(=O)CN(C)C1=O [JP1-028]
- Ki (Cyclophilin A (CypA); [10]): 35 ± 3 nM

Compound: CC[C@@H]1NC(=O)[C@H]([C@H](O)[C@H](C)CC=CCCC[n+]2ccc(N3CCCC3)c3ccc(C(F)(F)F)cc32)N(C)C(=O)[C@H](C(C)C)N(C)C(=O)[C@H](CC(C)C)N(C)C(=O)[C@H](CC(C)C)N(C)C(=O)[C@@H](C)NC(=O)[C@H](C)NC(=O)[C@H](CC(C)C)N(C)C(=O)[C@H](C(C)C)NC(=O)[C@H](CC(C)C)N(C)C(=O)CN(C)C1=O [JP1-140]
- Ki (CypD; [11]): 76 ± 8 nM

Compound: CC[C@@H]1NC(=O)[C@H]([C@H](O)[C@H](C)CC=CCCCOc2cc[n+](CCCc3ccccc3)c3ccccc23)N(C)C(=O)[C@H](C(C)C)N(C)C(=O)[C@H](CC(C)C)N(C)C(=O)[C@H](CC(C)C)N(C)C(=O)[C@@H](C)NC(=O)[C@H](C)NC(=O)[C@H](CC(C)C)N(C)C(=O)[C@H](C(C)C)NC(=O)[C@H](CC(C)C)N(C)C(=O)CN(C)C1=O [TWH43]
- CRC inhibition % [1]: 16.28%
- Ki (Cyclophilin A (CypA); [9]): 218 ± 57 nM

Compound: CC[C@@H]1NC(=O)[C@H]([C@H](O)[C@H](C)CC=CCCC[n+]2ccc(NCCc3ccccc3)c3ccccc32)N(C)C(=O)[C@H](C(C)C)N(C)C(=O)[C@H](CC(C)C)N(C)C(=O)[C@H](CC(C)C)N(C)C(=O)[C@@H](C)NC(=O)[C@H](C)NC(=O)[C@H](CC(C)C)N(C)C(=O)[C@H](C(C)C)NC(=O)[C@H](CC(C)C)N(C)C(=O)CN(C)C1=O [JP1-037H]
- CRC inhibition % [1]: 26.53%
- Ki (Cyclophilin A (CypA); [10]): 17 ± 5 nM

Compound: CC[C@@H]1NC(=O)[C@H]([C@H](O)[C@H](C)CC=CCCC[n+]2ccc(OCCOc3ccccc3)c3ccccc32)N(C)C(=O)[C@H](C(C)C)N(C)C(=O)[C@H](CC(C)C)N(C)C(=O)[C@H](CC(C)C)N(C)C(=O)[C@@H](C)NC(=O)[C@H](C)NC(=O)[C@H](CC(C)C)N(C)C(=O)[C@H](C(C)C)NC(=O)[C@H](CC(C)C)N(C)C(=O)CN(C)C1=O [TWH68]
- CRC inhibition % [1]: 17.71%
- Ki (Cyclophilin A (CypA); [9]): 467 ± 85 nM

Compound: CC[C@@H]1NC(=O)[C@H]([C@H](O)[C@H](C)C/C=C/CCC[n+]2ccc(N3CCOCC3)c3ccccc32)N(C)C(=O)[C@H](C(C)C)N(C)C(=O)[C@H](CC(C)C)N(C)C(=O)[C@H](CC(C)C)N(C)C(=O)[C@@H](C)NC(=O)[C@H](C)NC(=O)[C@H](CC(C)C)N(C)C(=O)[C@H](C(C)C)NC(=O)[C@H](CC(C)C)N(C)C(=O)CN(C)C1=O [JP1-141]
- level at time molar at 24 h (in vivo): 642 nM
- level at 24 h (in vivo): 927 ng/mL
- Toxicity in the pharmacokinetic experiment [2]: some toxicity
- Cl_obs [2]: 9.57 × 10^−05 (mg/kg)/(ng/ml).hour
- hepatocyte CLint [3]: 3.62 µL/min/1e6 cells
- fraction unbound [4]: 0.01
- AUC(0-inf) [5]: 105000 ng·h/mL
- AUC(0-t) [5]: 103000 ng·h/mL
- half-life [5]: 4.04 h
- Ki (Cyclophilin A (CypA); [12]): 29 nM
- hERG (% inhibition at 25 μM) (hERG; 25 μM): 63.9%
- inhibition at 25 µM (hERG; 25 μM): 65%
- hepatocyte CLint [6]: 3.59 µL/min/1e6 cells

Compound: CC[C@@H]1NC(=O)[C@H]([C@H](O)[C@H](C)C/C=C/CCC[n+]2ccc(NCCOc3ccccc3)c3ccccc32)N(C)C(=O)[C@H](C(C)C)N(C)C(=O)[C@H](CC(C)C)N(C)C(=O)[C@H](CC(C)C)N(C)C(=O)[C@@H](C)NC(=O)[C@H](C)NC(=O)[C@H](CC(C)C)N(C)C(=O)[C@H](C(C)C)NC(=O)[C@H](CC(C)C)N(C)C(=O)CN(C)C1=O [JP1-068]
- Ki (CypD; Table S3, fluorescence polarization, biotinylated-CsA probe, read-out: Ki (nM) CypD): 38.1 nM
- Ki (Cyclophilin A (CypA); [10]): 10 nM
- IC50 (hERG): 1000 to 2000 nM
- level at 1 h ([7]; brain, Brain ng/mL, 1 h): 110 ng/mL
- level at 4 h ([7]; brain, Brain ng/mL): 76 ng/mL
- level at 1 h ([7]; plasma, Plasma (ng/mL), 1 h): 6410 ng/mL
- level at 4 h ([7]; plasma, Plasma (ng/mL)): 6250 ng/mL
- Brain ([7]; 1 h): 110 ng/mL

Compound: CC[C@@H]1NC(=O)[C@H]([C@H](O)[C@H](C)CC=CCCC[n+]2ccc(N3CCCC3)c3ccccc32)N(C)C(=O)[C@H](C(C)C)N(C)C(=O)[C@H](CC(C)C)N(C)C(=O)[C@H](CC(C)C)N(C)C(=O)[C@@H](C)NC(=O)[C@H](C)NC(=O)[C@H](CC(C)C)N(C)C(=O)[C@H](C(C)C)NC(=O)[C@H](CC(C)C)N(C)C(=O)CN(C)C1=O [JP1-159]
- Ki (Cyclophilin A (CypA); [12]): 104 nM

Compound: CC[C@@H]1NC(=O)[C@H]([C@H](O)[C@H](C)C/C=C/CCC[n+]2ccc(N(C)C)c3ccccc32)N(C)C(=O)[C@H](C(C)C)N(C)C(=O)[C@H](CC(C)C)N(C)C(=O)[C@H](CC(C)C)N(C)C(=O)[C@@H](C)NC(=O)[C@H](C)NC(=O)[C@H](CC(C)C)N(C)C(=O)[C@H](C(C)C)NC(=O)[C@H](CC(C)C)N(C)C(=O)CN(C)C1=O [JP1-180]
- level at time molar at 24 h (in vivo): 142 nM
- level at 24 h (in vivo): 196 ng/mL
- Cl_obs [2]: 1.61 × 10^−04 (mg/kg)/(ng/ml).hour
- fraction unbound [8]: 0.17
- hepatocyte CLint [3]: 4.65 µL/min/1e6 cells
- Ki (CypD; [11]): 77 ± 46 nM
- AUC(0-inf) [5]: 62100 ng·h/mL
- AUC(0-t) [5]: 59300 ng·h/mL
- half-life [5]: 5.06 h
- inhibition at 25 µM (hERG; 25 μM): 9.75%
- hepatocyte CLint [6]: 4.07 µL/min/1e6 cells

Compound: CC[C@@H]1NC(=O)[C@H]([C@H](O)[C@H](C)CC=CCCC[n+]2ccc(OCc3ccccc3)c3ccccc32)N(C)C(=O)[C@H](C(C)C)N(C)C(=O)[C@H](CC(C)C)N(C)C(=O)[C@H](CC(C)C)N(C)C(=O)[C@@H](C)NC(=O)[C@H](C)NC(=O)[C@H](CC(C)C)N(C)C(=O)[C@H](C(C)C)NC(=O)[C@H](CC(C)C)N(C)C(=O)CN(C)C1=O [TWH53]
- CRC inhibition % [1]: 18.46%
- Ki (Cyclophilin A (CypA); [9]): 158 ± 43 nM

Compound: CC[C@@H]1NC(=O)[C@H]([C@H](O)[C@H](C)CC=CCCC[n+]2ccc(OCCCc3ccc(OC)cc3)c3ccccc32)N(C)C(=O)[C@H](C(C)C)N(C)C(=O)[C@H](CC(C)C)N(C)C(=O)[C@H](CC(C)C)N(C)C(=O)[C@@H](C)NC(=O)[C@H](C)NC(=O)[C@H](CC(C)C)N(C)C(=O)[C@H](C(C)C)NC(=O)[C@H](CC(C)C)N(C)C(=O)CN(C)C1=O [TWH44]
- CRC inhibition % [1]: 16.95%
- Ki (Cyclophilin A (CypA); [9]): 158 ± 17 nM

Compound: CC[C@@H]1NC(=O)[C@H]([C@H](O)[C@H](C)C/C=C/CCC[n+]2ccc(N3CCCCC3)c3ccccc32)N(C)C(=O)[C@H](C(C)C)N(C)C(=O)[C@H](CC(C)C)N(C)C(=O)[C@H](CC(C)C)N(C)C(=O)[C@@H](C)NC(=O)[C@H](C)NC(=O)[C@H](CC(C)C)N(C)C(=O)[C@H](C(C)C)NC(=O)[C@H](CC(C)C)N(C)C(=O)CN(C)C1=O [JP1-166]
- level at time molar at 24 h (in vivo): 86 nM
- level at 24 h (in vivo): 124 ng/mL
- Cl_obs [2]: 1.67 × 10^−04 (mg/kg)/(ng/ml).hour
- fraction unbound [8]: 0.43
- hepatocyte CLint [3]: 8.01 µL/min/1e6 cells
- AUC(0-inf) [5]: 59900 ng·h/mL
- AUC(0-t) [5]: 55000 ng·h/mL
- half-life [5]: 6.75 h
- Ki (Cyclophilin A (CypA); [12]): 31 ± 3 nM
- inhibition at 25 µM (hERG; 25 μM): 31.4%
- hepatocyte CLint [6]: 9.47 µL/min/1e6 cells

Compound: CC[C@@H]1NC(=O)[C@H]([C@H](O)[C@H](C)C/C=C/CCC[n+]2cccc3ccccc32)N(C)C(=O)[C@H](C(C)C)N(C)C(=O)[C@H](CC(C)C)N(C)C(=O)[C@H](CC(C)C)N(C)C(=O)[C@@H](C)NC(=O)[C@H](C)NC(=O)[C@H](CC(C)C)N(C)C(=O)[C@H](C(C)C)NC(=O)[C@H](CC(C)C)N(C)C(=O)CN(C)C1=O [JW47, reference compound]
- level at 4 h ([7]; plasma, Plasma (ng/mL)): 4900 ng/mL
